Reference: US8461107B2 (Merck Sharp & Dohme Corp., priority 2008, dated 2013)

Target: T1, HCV genotype 1b (BK) NS3 modified with a R155K mutation (Hepatitis C virus genotype 1b, UniProt P26663, R1181K)
T1 construct: HCV genotype 1b (BK) NS3 modified with a R155K mutation
Test: HCV NS3 protease time-resolved fluorescence (TRF) assay, NS3 protease 1b R155K Ki activity
Type: biochemical
Details: HCV genotype 1b (BK) NS3 with R155K mutation; TRF peptide substrate 100 nM; Ki derived from IC50
Experimental: The HCV NS3 protease inhibitory activity of the present compounds may be tested using assays known in the art. One such assay is HCV NS3 protease time-resolved fluorescence (TRF) assay as described below and in International Patent Application Publication WO 2006/102087. Other examples of such assays are described in e.g., International Patent Application Publication WO 2005/046712.
A NS3 protease assay can be performed, for example, in a final volume of 100 μl assay buffer containing 50 mM HEPES, pH 7.5, 150 mM NaCl, 15% glycerol, 0.15% TRITON X-100, 10 mM DTT, and 0.1% PEG 8000. NS3 and NS4A protease is pre-incubated with various concentrations of inhibitors in DMSO for 30 minutes. The reaction is initiated by adding the TRF peptide substrate (final concentration 100 nM). NS3 mediated hydrolysis of the substrate is quenched after 1 hour at room temperature with 100 μl of 500 mM MES, pH 5.5. Product fluorescence is detected using either a VICTOR V2 or FUSION fluorophotometer (Perkin Elmer Life and Analytical Sciences) with excitation at 340 nm and emission at 615 nm with a 400 μs delay. Testing concentrations of different enzyme forms are selected to result in a signal to background ratio (S/B) of 10-30. IC50 values are derived using a standard four-parameter fit to the data. Ki values are derived from IC50 values using the following formula, IC50=Ki(1+[S]/KM), Eqn (1), where [S] is the concentration of substrate peptide in the reaction and KM is the Michaelis constant. See P. Gallinari et al., 38 BIOCHEM. 5620-32 (1999); P. Gallinari et al., 72 J. VIROL. 6758-69 (1998); M. Taliani et al., 240 ANAL. BIOCHEM. 60-67 (1996).
The HCV NS3 protease inhibitory activity was measured using the protease time-resolved fluorescence (TRF) assay as described below and in International Patent Application Publication WO 2006/102087. The assay was performed with HCV genotype 1b (BK) NS3 modified with a R155K mutation.
The assay was performed in a final volume of 100 μl in assay buffer containing 50 mM HEPES, pH 7.5, 150 mM NaCl, 15% glycerol, 0.15% TRITON X-100, 10 mM DTT, and 0.1% PEG 8000. NS3 and NS4A protease is pre-incubated with various concentrations of inhibitors in DMSO for 30 minutes. The reaction is initiated by adding the TRF peptide substrate (final concentration 100 nM). NS3 mediated hydrolysis of the substrate is quenched after 1 hour at room temperature with 100 μl of 500 mM MES, pH 5.5. Product fluorescence is detected using either a VICTOR V2 or FUSION fluorophotometer (Perkin Elmer Life and Analytical Sciences) with excitation at 340 nm and emission at 615 nm with a 400 μs delay. Testing concentrations of the enzyme containing the R155K mutation were selected to result in a signal to background ratio (S/B) of 10-30. IC50 values are derived using a standard four-parameter fit to the data. Ki values are derived from IC50 values using the following formula, IC50=Ki(1+[S]/KM), Eqn (1), where [S] is the concentration of substrate peptide in the reaction and KM is the Michaelis constant. See P. Gallinari et al., 38 BIOCHEM. 5620-32 (1999); P. Gallinari et al., 72 J. VIROL. 6758-69 (1998); M. Taliani et al., 240 ANAL. BIOCHEM. 60-67 (1996).

Structure (SMILES) | Ki [nM]
CC[C@@H]1C[C@]1(NC(=O)[C@@H]1C[C@@H]2CN1C(=O)[C@H](C1CCCC1)NC(=O)O[C@@H]1CCC[C@H]1CC/C=C/Cn1c(nc3cc(C(F)(F)F)ccc3c1=O)O2)C(=O)NS(=O)(=O)C1CC1 [(3aR,7S,10S,12R,22E,25aS)-7-cyclopentyl-N-((1R,2R)-1-{[(cyclopropylsulfonyl)amino]carbonyl}-2-ethylcyclopropyl)-5,8,19-trioxo-16-(trifluoromethyl)-1,2,3,3a,5,6,7,8,11,12,21,24,25,25a-tetradecahydro-10H,19H-9,12-methanocyclopenta[18,19][1,10,3,6,12]dioxatriazacyclononadecino[11,12-b]quinazoline-10-carboxamide] | < 0.1
CC[C@@H]1C[C@]1(NC(=O)[C@@H]1C[C@@H]2CN1C(=O)[C@H](C1CCCC1)NC(=O)O[C@@H]1CCC[C@H]1CC/C=C/Cn1c(nc3cc(-c4ccccc4)ccc3c1=O)O2)C(=O)NS(=O)(=O)C1CC1 [(3aR,7S,10S,12R,22E,25aS)-7-cyclopentyl-N-((1R,2R)-1-{[(cyclopropylsulfonyl)amino]carbonyl}-2-ethylcyclopropyl)-5,8,19-trioxo-16-phenyl-1,2,3,3a,5,6,7,8,11,12,21,24,25,25a-tetradecahydro-10H,19H-9,12-methanocyclopenta[18,19][1,10,3,6,12]dioxatriazacyclononadecino[11,12-b]quinazoline-10-carboxamide] | 0.1 to 0.5
CC[C@@H]1C[C@]1(NC(=O)[C@@H]1C[C@@H]2CN1C(=O)[C@H](C1CCCC1)NC(=O)O[C@@H]1CCC[C@H]1CC/C=C/Cc1c(nc3ccccn3c1=O)O2)C(=O)NS(=O)(=O)C1CC1 [(3aR,7S,10S,12R,22E,25aS)-7-cyclopentyl-N-((1R,2R)-1-{[(cyclopropylsulfonyl)amino]carbonyl}-2-ethylcyclopropyl)-5,8,20-trioxo-1,2,3,3a,5,6,7,8,11,12,21,24,25,25a-tetradecahydro-10H,20H-9,12-methanocyclopenta[r]pyrido[1′,2′:1,2]pyrimido[4,5-k][1,10,3,6]dioxadiazacyclononadecine-10-carboxamide] | 0.1 to 0.5
CC[C@@H]1C[C@]1(NC(=O)[C@@H]1C[C@@H]2CN1C(=O)[C@H](C1CCCC1)NC(=O)O[C@@H]1CCC[C@H]1CC/C=C/Cn1c(nc3c(OC)cccc3c1=O)O2)C(=O)NS(=O)(=O)C1CC1 [(3aR,7S,10S,12R,22E,25aS)-7-cyclopentyl-N-((1R,2R)-1-{[(cyclopropylsulfonyl)amino]carbonyl}-2-ethylcyclopropyl)-15-methoxy-5,8,19-trioxo-1,2,3,3a,5,6,7,8,11,12,21,24,25,25a-tetradecahydro-10H,19H-9,12-methanocyclopenta[18,19][1,10,3,6,12]dioxatriazacyclononadecino[11,12-b]quinazoline-10-carboxamide] | 0.1 to 0.5
CC[C@@H]1C[C@]1(NC(=O)[C@@H]1C[C@@H]2CN1C(=O)[C@H](C1CCCC1)NC(=O)O[C@@H]1CCC[C@H]1CC/C=C/Cn1c(nc3cc(S(C)(=O)=O)ccc3c1=O)O2)C(=O)NS(=O)(=O)C1CC1 [(3aR,7S,10S,12R,22E,25aS)-7-cyclopentyl-N-((1R,2R)-1-{[(cyclopropylsulfonyl)amino]carbonyl}-2-ethylcyclopropyl)-16-(methylsulfonyl)-5,8,19-trioxo-1,2,3,3a,5,6,7,8,11,12,21,24,25,25a-tetradecahydro-10H,19H-9,12-methanocyclopenta[18,19][1,10,3,6,12]dioxatriazacyclononadecino[11,12-b]quinazoline-10-carboxamide] | < 0.1
CC[C@@H]1C[C@]1(NC(=O)[C@@H]1C[C@@H]2CN1C(=O)[C@H](C1CCCC1)NC(=O)O[C@@H]1CCC[C@H]1CC/C=C/Cc1c(nc3cc(OC)ccn3c1=O)O2)C(=O)NS(=O)(=O)C1CC1 [(3aR,7S,10S,12R,22E,25aS)-7-cyclopentyl-N-((1R,2R)-1-{[(cyclopropylsulfonyl)amino]carbonyl}-2-ethylcyclopropyl)-16-methoxy-5,8,20-trioxo-1,2,3,3a,5,6,7,8,11,12,21,24,25,25a-tetradecahydro-10H,20H-9,12-methanocyclopenta[r]pyrido[1′,2′:1,2]pyrimido[4,5-k][1,10,3,6]dioxadiazacyclononadecine-10-carboxamide] | 0.1 to 0.5
CC[C@@H]1C[C@]1(NC(=O)[C@@H]1C[C@@H]2CN1C(=O)[C@H](C1CCCC1)NC(=O)O[C@@H]1CCC[C@H]1CC/C=C/Cn1c(nc3cccc(OC)c3c1=O)O2)C(=O)NS(=O)(=O)C1CC1 [(3aR,7S,10S,12R,22E,25aS)-7-cyclopentyl-N-((1R,2R)-1-{[(cyclopropylsulfonyl)amino]carbonyl}-2-ethylcyclopropyl)-18-methoxy-5,8,19-trioxo-1,2,3,3a,5,6,7,8,11,12,21,24,25,25a-tetradecahydro-10H,19H-9,12-methanocyclopenta[18,19][1,10,3,6,12]dioxatriazacyclononadecino[11,12-b]quinazoline-10-carboxamide] | 0.1 to 0.5
C=C[C@@H]1C[C@]1(NC(=O)[C@@H]1C[C@@H]2CN1C(=O)[C@H](C1CCCC1)NC(=O)O[C@@H]1CCC[C@H]1CC/C=C/Cn1c(nc3ccccc3c1=O)O2)C(=O)NS(=O)(=O)C1CC1 [(3aR,7S,10S,12R,22E,25aS)-7-cyclopentyl-N-((1R,2S)-1-{[(cyclopropylsulfonyl)amino]carbonyl}-2-vinylcyclopropyl)-5,8,19-trioxo-1,2,3,3a,5,6,7,8,11,12,21,24,25,25a-tetradecahydro-10H,19H-9,12-methanocyclopenta[18,19][1,10,3,6,12]dioxatriazacyclononadecino[11,12-b]quinazoline-10-carboxamide] | < 0.1
C=C[C@@H]1C[C@]1(NC(=O)[C@@H]1C[C@@H]2CN1C(=O)[C@H](C1CCCC1)NC(=O)O[C@@H]1CCC[C@H]1CC/C=C/Cn1c(nc3cc(C(F)(F)F)ccc3c1=O)O2)C(=O)NS(=O)(=O)C1CC1 [(3aR,7S,10S,12R,22E,25aS)-7-cyclopentyl-N-((1R,2S)-1-{[(cyclopropylsulfonyl)amino]carbonyl}-2-vinylcyclopropyl)-5,8,19-trioxo-16-(trifluoromethyl)-1,2,3,3a,5,6,7,8,11,12,21,24,25,25a-tetradecahydro-10H,19H-9,12-methanocyclopenta[18,19][1,10,3,6,12]dioxatriazacyclononadecino[11,12-b]quinazoline-10-carboxamide] | < 0.1
C=C[C@@H]1C[C@]1(NC(=O)[C@@H]1C[C@@H]2CN1C(=O)[C@H](C1CCCC1)NC(=O)O[C@@H]1CCC[C@H]1CC/C=C/Cn1c(nc3cc(-c4ccccc4)ccc3c1=O)O2)C(=O)NS(=O)(=O)C1CC1 [(3aR,7S,10S,12R,22E,25aS)-7-cyclopentyl-N-((1R,2S)-1-{[(cyclopropylsulfonyl)amino]carbonyl}-2-vinylcyclopropyl)-5,8,19-trioxo-16-phenyl-1,2,3,3a,5,6,7,8,11,12,21,24,25,25a-tetradecahydro-10H,19H-9,12-methanocyclopenta[18,19][1,10,3,6,12]dioxatriazacyclononadecino[11,12-b]quinazoline-10-carboxamide] | < 0.1
C=C[C@@H]1C[C@]1(NC(=O)[C@@H]1C[C@@H]2CN1C(=O)[C@H](C1CCCC1)NC(=O)O[C@@H]1CCC[C@H]1CC/C=C/Cc1c(nc3ccccn3c1=O)O2)C(=O)NS(=O)(=O)C1CC1 [(3aR,7S,10S,12R,22E,25aS)-7-cyclopentyl-N-((1R,2S)-1-{[(cyclopropylsulfonyl)amino]carbonyl}-2-vinylcyclopropyl)-5,8,20-trioxo-1,2,3,3a,5,6,7,8,11,12,21,24,25,25a-tetradecahydro-10H,20H-9,12-methanocyclopenta[r]pyrido[1′,2′:1,2]pyrimido[4,5-k][1,10,3,6]dioxadiazacyclononadecine-10-carboxamide] | < 0.1
